Experimental data: patent US20210007347A1, “COMPOSITIONS AND METHODS FOR PRESERVING ORGAN TRANSPLANTS” (FIRSTSTRING RESEARCH, INC., priority 2019, published 2021)

Assays:
Aortic allografts = assay: Aortic allograft transplantation, chronic rejection; assay type: in vivo, Balb/c donors, B6 recipients
Description: Aortic allografts were stored for 6 hours or 24 hours, and assessed on Day 28 after transplantation for neointimal hyperplasia (a hallmark of chronic rejection) and T cell infiltration.

Endothelial cells (EC) = assay: Cold storage and reperfusion injury of pre-treated endothelial cells, measured by electrical resistance; assay type: cell-based; conditions: ECs pre-treated with UW solution comprising 50 μM or 100 μM ACT1 vs UW solution only; 1, 3, 12 and 24 hours post-treatment; FIG. 1A
Description: (§1) Endothelial cells (EC) were pre-treated with University of Wisconsin (UW) solution only, or UW solution comprising 50 μM or 100 μM ACT1. Cold storage and reperfusion injury, pro-inflammatory cytokine release, and gap junction stabilization (Cx43 expression) were measured.

Cx43 = assay: Gap junction stabilization (Cx43 expression) in pre-treated endothelial cells; assay type: cell-based; conditions: ACT1 pretreatment in UW solution; 1 hour and 24 hours post reperfusion; FIG. 1C
Description: as §1

IL-8 = assay: Pro-inflammatory cytokine (IL-8) release from pre-treated endothelial cells; assay type: cell-based; conditions: ECs pre-treated with UW solution comprising 50 μM or 100 μM ACT1 vs UW solution only; FIG. 1B
Description: as §1

Pig kidneys = assay: Pig kidney ex vivo perfusion model
Description: Pig kidneys were harvested and flushed with cold HTK solution, and then underwent 18 hours of cold static storage in HTK solution. At 18 hours, the kidneys were placed on a perfusion pump and perfused in cold HTK solution with or without 1 μM ACT1 (500 μL/mL). The control kidney in each pair was perfused with cold HTK and its pair was perfused with cold HTK supplemented with ACT1. While on pump, the resistance values were recorded and samples were collected of the perfusate solution every 30 minutes. At the end of 6 hours on the pump, kidneys were taken off of the pump and biopsies were collected and assessed for viability, function, and characteristics as described below.
Tubular necrosis (in this study, a measure of cell death) was assessed by basic histology/pathology methods and subjective scoring. Overall epithelial cell death was determined using EpCam as the marker. The relative expression of Vcam and ICam were determined via RT-qPCR in biopsied tissue at the end of each perfusion pump run. LDH ([…] dehydrogenase) was measured as a marker of tissue injury and was quantified using a colorimetric assay.

Balb/c donor hearts = assay: Allogenic heart transplantation model with static cold storage of donor hearts; assay type: in vivo, Balb/c donors, B6 recipients; conditions: donor hearts cold stored 6 h at 4° C. in UW solution with ACT1 vs UW alone
[1] = biopsied tissue at end of perfusion with ACT1-augmented HTK solution vs HTK, FIG. 7

RQPKIWFPNRRKPWKKRPRPDDLEI [ACT1]
percent intimal expansion (Aortic allografts; 28 days post-treatment, including aortas stored for 24 hours, FIG. 3B): significantly reduced | neointimal hyperplasia following aorta transplantation (Aortic allografts; aortic allografts stored 6 hours or 24 hours, assessed on Day 28 after transplantation, FIG. 3A): ameliorates | cold storage and reperfusion injury as measured by electrical resistance (Endothelial cells (EC)): prevented cold storage and reperfusion injury | Cx43 expression (Cx43): increased | IL-8 release from the ECs (IL-8): significantly reduced | change in vascular renal resistance (Pig kidneys; 18 h cold static storage in HTK, then 6 hours pump perfusion in cold HTK with 1 μM ACT1 vs without, matched kidney donor pairs #1 and #2, FIGS. 4A, 4B, 5A, 5B): prevents change in vascular renal resistance | tubular necrosis (histology, subjective scoring) (Pig kidneys; 18 h cold static storage in HTK, then 6 hours pump perfusion in cold HTK with 1 μM ACT1 vs without, matched kidney donor pairs #1 and #2, FIGS. 4C, 5C): reduces tubular necrosis | endothelial cell activation as measured by Icam expression (RT-qPCR) (Pig kidneys; [1]): decreases endothelial cell activation | endothelial cell activation as measured by Vcam expression (RT-qPCR) (Pig kidneys; [1]): decreases endothelial cell activation | LDH activity (marker of tissue injury, colorimetric assay) (Pig kidneys; cold HTK perfusion with 1 μM ACT1 vs without, paired marginal kidneys, FIG. 6): decreases LDH activity | number of macrophages (MAC-3+ cells) (Balb/c donor hearts; FIG. 2C): significantly reduced | number of neutrophils (GR1+ cells) (Balb/c donor hearts; FIG. 2C): significantly reduced | IRI as measured by cardiac troponin I (Balb/c donor hearts; FIG. 2D): significantly reduced | IRI as measured by cumulative histology score (Balb/c donor hearts; FIG. 2D): significantly reduced
